According to patent US20050032863A1, “Method of treating or preventing central nervous system disorders with compounds having selectivity for the alpha 3 subunit of the benzodiazepine receptor” (priority 2003, published 2005):

Columns and labels:
[1] = system: 5-HT release in the brain; conditions: literature reports; cited from earlier work
[2] = molecular target: T1, recombinant rat α2β2γ2 GABAA receptors (Rattus norvegicus, UniProt P23576); test: Whole-cell patch-clamp, modulation of GABA (EC20)-induced currents in transfected HEK 293 cells, α2β2γ2; format: cell-based
T1 construct: expressed in transfected cells; host or cells: HEK 293
Protocol: (§1) For electrophysiological recording HEK-293 cells were passaged and replated on 12-mm glass coverslips located in 9.6-cm plastic dishes filled with 10 ml of Minimum Essential Medium (MEM, Gibco) supplemented with 158 mg/l sodium bicarbonate, 2 mM glutamine (Gibco), 100 U/ml penicillin-streptomycin (Gibco), and 10% foetal calf serum (Gibco). Cultures were maintained at 37° C. in a humidified […]/5% CO2 atmosphere for 2-3 days.
(§2) Transfection with recombinant rat GABAA receptors was carried out as described in detail (Korpi and Lüddens, 1993, Lüddens and Korpi, 1995b). Briefly, HEK 293 cells were transfected in triple combinations using the phosphate precipitation method with rat GABAA receptor cDNAs in eukaryotic expression vectors (Pritchett, 1990) for the α, β and γ subunits. For optimal receptor expression, final concentrations (μg vector DNA per 9.6 cm tissue culture plate) were: α1, 2; α2 4.8; α3, 1.2; α4, 10; α5, 0.8; β2, 0.4; and γ2S, 0.3. The γ2S variant is abbreviated γ2 in the remainder of the text. To identify transfected cells all subunit combinations were co-transfected with 1 μg per plate of pNI-EGFP.
(§3) Two days after transfection single coverslips containing HEK 293 cells were placed in a recording chamber mounted on the movable stage of a fluorescence microscope (Olympus IX70) and perfused with a defined saline solution containing (in mM): 130 NaCl, 5.4 KCl, 2 CaCl2, 2 MgSO4, 10 glucose, 5 sucrose, and 10 HEPES (free acid), pH adjusted to 7.35 with about 35 mM NaOH. Transfected cells were identified by their green fluorescence due to the expression of the pNI-EGFP vector and ligand-mediated membrane currents of these cells were studied in the whole-cell configuration of the patch-clamp technique (Hamil et al., 1981). Patch-clamp pipettes were pulled from hard borosilicate capillary glass (0.5 mm ID, 1.5 mm OD, Vitrex, Science Products GmbH, Hofheim, Germany) using a horizontal puller (Sutter Instruments, CA, Model P-97) in a multi-stage process.
(§4) Seal resistances >1 GΩ were routinely obtained by applying gentle suction to the pipettes. Membrane rupture was monitored electrically as an increase in capacity. Pipette capacitance, membrane capacitance, and series resistance were electronically compensated to achieve minimal capacitative transients. A series resistance compensation of >60% was regularly used.
(§5) In all cells recorded the presence of the γ2 subunit in the heteropentamere was monitored by the application of 1 μM zolpidem plus the EC20 of GABA before testing the experimental drugs.
(§6) Responses of the cells were recorded by a patch-clamp amplifier (EPC-8, HEKA-Electronic, Lambrecht, Germany) in conjunction with a standard personal computer and the pClamp 8.1 software package (Axon Instruments, Foster City, Calif.). The standard holding-potential for the cells was −40 mV. Whole cell currents were low-pass filtered by an eight-pole Bessel filter at 5 or 3 kHz before being digitised by a Digidata 1322A interface (Axon Instruments, Foster City, Calif.) and recorded by the computer at a sampling rate of at least […].
(§7) Efficacy, potency, and GABAA receptor a subunit specificity of the new compound ELB139 was tested with the whole cell configuration of the patch-clamp technique by applying increasing drug concentration together with GABA of the approximate EC20 on green fluorescing cells. BZ binding site specificity of the new compound was tested on the same cells in an identical experimental setting with additionally applying 10 μM Ro15-1788.

[3] = molecular target: T2, recombinant rat α4β2γ2 GABAA receptors (Rattus norvegicus, UniProt P28471); test: Whole-cell patch-clamp, modulation of GABA (EC20)-induced currents in transfected HEK 293 cells, α4β2γ2; format: cell-based; conditions: α4-containing receptors; diazepam up to 1 μM, ELB139 at all concentrations tested
T2 construct: expressed in transfected cells; host or cells: HEK 293
Protocol: as §1, §2
as §3, with “Patch-clamp pipettes were pulled from hard borosilicate capillary glass (0.5 mm ID, 1.5 mm OD, Vitrex, Science Products GmbH, Hofheim, Germany) using a horizontal puller (Sutter Instruments, CA, Model P-97) in a multi-stage process.” left out
Seal resistances >1 GΩ were routinely obtained by applying gentle suction to the pipettes. Membrane rupture was monitored electrically as an increase in capacity. […]
In all cells recorded the presence of the γ2 subunit in the heteropentamere was monitored by the application of 1 μM zolpidem plus the EC20 of GABA before testing the experimental drugs. […]

[4] = molecular target: T3, recombinant rat α5β2γ2 GABAA receptors (Rattus norvegicus, UniProt P19969); test: Whole-cell patch-clamp, modulation of GABA (EC20)-induced currents in transfected HEK 293 cells, α5β2γ2; format: cell-based
T3 construct: expressed in transfected cells; host or cells: HEK 293
Protocol: as §1, §2, §3, §4, §5, §6, §7

[5] = molecular target: T4, recombinant rat α3β2γ2 GABAA receptors (Rattus norvegicus, UniProt P20236); test: Whole-cell patch-clamp, modulation of GABA (EC20)-induced currents in transfected HEK 293 cells, α3β2γ2; format: cell-based
T4 construct: expressed in transfected cells; host or cells: HEK 293
Protocol: as §1, §2, §3, §4, §5, §6, §7

[6] = molecular target: T5, recombinant rat α1β2γ2 GABAA receptors (Rattus norvegicus, UniProt P62813); test: Whole-cell patch-clamp, modulation of GABA (EC20)-induced currents in transfected HEK 293 cells, α1β2γ2; format: cell-based
T5 construct: expressed in transfected cells; host or cells: HEK 293
Protocol: as §1, §2, §3, §4, §5, §6, §7

[7] = system: female Wistar rats, MK-801-induced stereotypies, hyperactivity and ataxia; test: MK-801-induced behaviour, rat model of psychosis (Example 1); format: in vivo; conditions: 0.5 mg/kg i.p. 1 h prior to test; MK-801 0.2 mg/kg i.p.; p<0.001
Protocol: (§8) The behaviour induced by the NMDA antagonist MK-801 is generally accepted as a rat model of psychosis. MK-801 induces stereotypies, hyperactivity and ataxia in rats after intraperitoneal administration.
Locomotor activity of the rats is recorded by the MotiTest Apparatus (TSE, Bad Homburg, Germany). The test area consisted of a squared arena ([…] with protective plexiglass walls (20 cm of height) where rats could freely move. Horizontal movements were recorded by 32 infrared photocells arranged along the bottom of each wall of the arena. Vertical movements (rearings) were recorded by a horizontal row of 32 infrared photocells 12 cm above the floor. The following parameters are measured by the computer program “ActiMot” (TSE, Bad Homburg, Germany): • active time [s] and total distance travelled [m]
(§9) Stereotypies, divided into stereotyped sniffing and other stereotypies, and ataxia are scored by the experimenter every five minutes for one hour (12 intervals) according to the method described by Andiné et al. (1999). The scores of the 12 intervals are added for each parameter.
The day of experiment the female rats are placed in the laboratory and receive the test compound, the reference substance or vehicle at the appropriate time prior to test. MK-801 0.2 mg/kg is intraperitoneally administered 10 minutes prior to test.
(§10) At the beginning of the test the rats are placed in the centre of the squared arena of the MotiTest apparatus. Behaviour of the rats is recorded for one hour. After each run animals are removed and the boxes thoroughly cleaned and dried.

[8] = system: female Wistar rats, MK-801-induced stereotypies, hyperactivity and ataxia; test: MK-801-induced psychosis-related behaviour and reversibility by flumazenil (Example 7); format: in vivo, rat
Protocol: Apart from the haloperidol rats which received haloperidol 30 minutes and MK-801 10 minutes prior to the test, the other test groups received haloperidol, ELB139 or vehicle 60 minutes prior to test, saline or flumazenil 20 minutes prior to test and MK-801 10 minutes prior to test.
as §8
Locomotor activity of the rats is recorded by the MotiTest Apparatus (TSE, Bad Homburg, Germany). The test area consisted of a squared arena (45×45 cm) with protective plexiglass walls (20 cm of height) where rats could freely move. Horizontal movements were recorded by 32 infrared photocells arranged along the bottom of each wall of the arena. Vertical movements (rearings) were recorded by a horizontal row of 32 infrared photocells 12 cm above the floor. The following parameters were measured by the computer program “ActiMot” (TSE, Bad Homburg, Germany): • 1. active time [s] • 2. total distance travelled [m]
as §9
The day of experiment the female rats are placed in the laboratory and receive the test compound, the reference substance or vehicle at the appropriate time prior to test. […]
as §10

[9] = molecular target: alpha 2 receptors (UniProt P18508+P47869); conditions: cited from earlier work
[10] = molecular target: alpha 1 containing receptors (UniProt P14867+P18508); conditions: cited from earlier work
[11] = molecular target: alpha 3 receptors (UniProt P18508+P34903); conditions: cited from earlier work
[12] = molecular target: alpha 5 containing receptors (UniProt P18508+P31644); conditions: cited from earlier work
[13] = system: male Wistar rats; test: Rat forced swim test; format: in vivo; conditions: 10 and 30 mg/kg p.o., 23, 5 and 1 h prior to testing
Protocol: All animals were treated with verum or vehicle three times: shortly after the habituation session (23 h), 5 and 1 h prior to testing. All drugs were administered orally with an application volume of 1 ml/kg.
The animals were tested in a glass tank (23×30 cm, height 40 cm) filled to a depth of 28 cm with water at 22° C. (the animals could not touch the bottom). The glass tank was illuminated indirectly and was surrounded by dark brown shading walls (distance from the tank 20 cm) to prevent the view on the experimenter. The experiments were performed between 14:00 and 17:00 hours and the method was in general performed as described (Porsolt et al., 1979; Lucki, 1997).
On the first experimental day, rats were gently placed in the water for a 15 min period of habituation. On removal from the water, they were placed in a standard plexiglass box, the floor covered with paper towels, under an infrared heater for 30 min to dry. The next day, they were once more placed gently in the glass tank and observed for 5 min. The behaviour of the animals was video-taped.
Following the experiment the video tapes were analysed manually and the duration of the following behaviours was recorded: Immobility: floating and making only those movements necessary to keep the nose above the water. […] Climbing: when rats strongly move their forepaws in and out of the water, usually against the walls.

[14] = haloperidol 0.5 mg/kg i.p. + flumazenil 5 mg/kg i.p.
[15] = haloperidol 0.5 mg/kg i.p., MK-801 0.1 mg/kg i.p.

T3 sequence (P19969 32-464 limits assumed): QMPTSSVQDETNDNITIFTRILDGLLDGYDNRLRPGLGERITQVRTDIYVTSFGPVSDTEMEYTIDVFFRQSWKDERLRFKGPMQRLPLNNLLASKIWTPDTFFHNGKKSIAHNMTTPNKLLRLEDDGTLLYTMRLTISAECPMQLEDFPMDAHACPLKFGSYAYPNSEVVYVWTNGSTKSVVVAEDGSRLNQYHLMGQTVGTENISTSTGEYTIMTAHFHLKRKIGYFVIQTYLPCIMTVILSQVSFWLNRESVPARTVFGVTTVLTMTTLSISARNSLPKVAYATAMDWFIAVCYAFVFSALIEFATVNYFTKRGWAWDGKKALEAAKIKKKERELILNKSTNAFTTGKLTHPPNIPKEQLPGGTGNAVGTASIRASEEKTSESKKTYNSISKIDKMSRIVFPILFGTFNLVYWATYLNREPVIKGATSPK
T1 sequence (P23576 29-451): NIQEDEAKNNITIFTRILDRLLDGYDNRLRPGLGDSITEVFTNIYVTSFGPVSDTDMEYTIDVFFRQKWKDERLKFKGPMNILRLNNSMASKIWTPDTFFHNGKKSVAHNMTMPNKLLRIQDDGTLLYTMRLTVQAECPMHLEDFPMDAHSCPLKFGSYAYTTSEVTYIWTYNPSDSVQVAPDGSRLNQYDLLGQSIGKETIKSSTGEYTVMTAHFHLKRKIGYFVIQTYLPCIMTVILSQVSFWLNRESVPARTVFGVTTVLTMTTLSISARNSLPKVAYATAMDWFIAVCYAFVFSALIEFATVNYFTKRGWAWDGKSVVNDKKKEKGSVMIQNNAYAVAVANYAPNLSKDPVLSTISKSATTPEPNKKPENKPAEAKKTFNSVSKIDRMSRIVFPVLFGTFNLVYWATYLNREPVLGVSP
T5 sequence (P62813 28-455): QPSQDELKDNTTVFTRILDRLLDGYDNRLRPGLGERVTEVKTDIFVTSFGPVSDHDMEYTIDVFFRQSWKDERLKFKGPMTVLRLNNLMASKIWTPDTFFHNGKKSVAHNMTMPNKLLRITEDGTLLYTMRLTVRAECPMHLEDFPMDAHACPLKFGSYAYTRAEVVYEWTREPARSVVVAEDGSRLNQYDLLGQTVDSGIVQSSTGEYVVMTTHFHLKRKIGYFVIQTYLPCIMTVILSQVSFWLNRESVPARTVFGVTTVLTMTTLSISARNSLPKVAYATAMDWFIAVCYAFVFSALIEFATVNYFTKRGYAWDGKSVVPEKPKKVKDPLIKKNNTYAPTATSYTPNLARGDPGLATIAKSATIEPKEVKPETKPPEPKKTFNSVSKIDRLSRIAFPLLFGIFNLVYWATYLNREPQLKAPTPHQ
T4 sequence (P20236 29-493): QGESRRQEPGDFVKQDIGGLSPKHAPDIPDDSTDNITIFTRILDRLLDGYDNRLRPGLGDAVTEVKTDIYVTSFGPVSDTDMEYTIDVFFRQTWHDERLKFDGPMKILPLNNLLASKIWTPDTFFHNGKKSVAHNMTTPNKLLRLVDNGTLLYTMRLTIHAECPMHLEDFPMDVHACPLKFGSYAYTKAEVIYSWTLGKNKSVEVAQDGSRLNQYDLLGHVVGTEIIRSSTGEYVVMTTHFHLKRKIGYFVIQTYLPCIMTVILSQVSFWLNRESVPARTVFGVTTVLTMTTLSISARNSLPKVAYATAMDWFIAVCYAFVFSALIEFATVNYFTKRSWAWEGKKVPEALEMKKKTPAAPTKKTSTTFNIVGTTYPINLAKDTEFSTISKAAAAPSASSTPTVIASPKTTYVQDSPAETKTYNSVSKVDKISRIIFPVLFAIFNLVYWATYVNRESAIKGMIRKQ
T2 sequence (P28471 36-552): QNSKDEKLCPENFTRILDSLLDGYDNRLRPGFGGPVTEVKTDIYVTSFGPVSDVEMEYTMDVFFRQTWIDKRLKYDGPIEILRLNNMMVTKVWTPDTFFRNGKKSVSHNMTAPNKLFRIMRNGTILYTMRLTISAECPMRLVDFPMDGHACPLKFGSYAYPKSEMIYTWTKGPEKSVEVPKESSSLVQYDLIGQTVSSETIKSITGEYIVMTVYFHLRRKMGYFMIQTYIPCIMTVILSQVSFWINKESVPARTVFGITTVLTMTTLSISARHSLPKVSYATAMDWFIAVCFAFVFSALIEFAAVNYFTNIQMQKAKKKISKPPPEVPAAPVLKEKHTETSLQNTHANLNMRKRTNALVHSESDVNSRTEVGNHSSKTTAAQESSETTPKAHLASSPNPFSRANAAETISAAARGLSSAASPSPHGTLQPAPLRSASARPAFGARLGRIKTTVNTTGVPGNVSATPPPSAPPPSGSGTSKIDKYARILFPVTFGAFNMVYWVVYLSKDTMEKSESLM
Chain of alpha 2 receptors (P47869 29-451): as the sequence (P23576 29-451) above, with S88L, P174A, G330A counted along it
Chain of alpha 2 receptors (P63138 25-474 partner limits assumed): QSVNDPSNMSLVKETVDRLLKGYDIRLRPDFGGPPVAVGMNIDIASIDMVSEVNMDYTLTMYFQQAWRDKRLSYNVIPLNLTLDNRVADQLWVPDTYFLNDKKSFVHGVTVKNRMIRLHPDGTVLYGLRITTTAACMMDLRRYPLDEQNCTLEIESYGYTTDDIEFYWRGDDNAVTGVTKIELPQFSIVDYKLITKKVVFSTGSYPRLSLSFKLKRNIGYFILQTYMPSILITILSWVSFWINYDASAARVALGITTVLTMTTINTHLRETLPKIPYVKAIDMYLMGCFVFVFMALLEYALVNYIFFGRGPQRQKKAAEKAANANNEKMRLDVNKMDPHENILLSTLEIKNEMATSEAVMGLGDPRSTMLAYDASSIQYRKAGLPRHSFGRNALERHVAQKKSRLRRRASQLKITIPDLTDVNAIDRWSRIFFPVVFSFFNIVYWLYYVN
Chain of alpha 2 receptors (P18508 39-466): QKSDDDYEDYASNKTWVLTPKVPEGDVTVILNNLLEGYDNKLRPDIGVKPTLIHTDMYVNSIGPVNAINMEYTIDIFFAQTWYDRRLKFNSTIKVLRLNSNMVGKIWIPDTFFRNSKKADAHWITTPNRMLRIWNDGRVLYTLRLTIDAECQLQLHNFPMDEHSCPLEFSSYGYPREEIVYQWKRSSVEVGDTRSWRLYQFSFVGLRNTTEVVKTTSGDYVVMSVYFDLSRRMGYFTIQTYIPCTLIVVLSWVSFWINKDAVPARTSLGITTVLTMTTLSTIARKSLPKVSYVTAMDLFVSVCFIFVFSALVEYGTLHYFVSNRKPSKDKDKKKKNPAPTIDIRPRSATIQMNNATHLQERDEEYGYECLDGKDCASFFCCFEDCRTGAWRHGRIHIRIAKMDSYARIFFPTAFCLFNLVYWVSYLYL
Chain of alpha 5 containing receptors (P31644 32-462): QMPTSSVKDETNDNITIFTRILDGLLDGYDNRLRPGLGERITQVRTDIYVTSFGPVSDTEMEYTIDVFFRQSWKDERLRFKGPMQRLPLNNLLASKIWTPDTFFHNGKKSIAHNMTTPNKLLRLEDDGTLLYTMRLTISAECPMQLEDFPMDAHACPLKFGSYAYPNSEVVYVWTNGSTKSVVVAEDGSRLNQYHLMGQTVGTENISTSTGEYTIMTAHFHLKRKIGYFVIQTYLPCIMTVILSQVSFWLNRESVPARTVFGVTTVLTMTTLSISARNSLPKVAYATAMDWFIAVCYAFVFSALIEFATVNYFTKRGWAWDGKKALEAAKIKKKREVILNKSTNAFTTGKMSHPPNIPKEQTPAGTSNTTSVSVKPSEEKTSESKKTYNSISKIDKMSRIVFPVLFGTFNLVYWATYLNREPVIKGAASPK
Chain of alpha 5 containing receptors (P63079 26-473 partner): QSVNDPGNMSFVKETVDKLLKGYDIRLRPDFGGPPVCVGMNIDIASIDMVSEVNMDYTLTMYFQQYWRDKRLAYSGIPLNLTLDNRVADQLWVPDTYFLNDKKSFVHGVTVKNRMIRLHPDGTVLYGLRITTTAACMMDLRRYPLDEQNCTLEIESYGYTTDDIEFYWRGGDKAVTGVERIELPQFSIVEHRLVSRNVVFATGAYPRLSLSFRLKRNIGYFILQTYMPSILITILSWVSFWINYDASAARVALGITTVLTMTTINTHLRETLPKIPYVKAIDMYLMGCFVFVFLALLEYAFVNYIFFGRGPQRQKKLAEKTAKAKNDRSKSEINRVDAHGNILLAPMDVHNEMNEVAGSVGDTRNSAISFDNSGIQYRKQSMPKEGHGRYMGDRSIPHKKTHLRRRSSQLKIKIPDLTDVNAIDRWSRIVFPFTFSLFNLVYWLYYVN
Chain of alpha 5 containing receptors (P18508 39-466): as the sequence (P18508 39-466) above
Chain of alpha 3 receptors (P34903 29-492): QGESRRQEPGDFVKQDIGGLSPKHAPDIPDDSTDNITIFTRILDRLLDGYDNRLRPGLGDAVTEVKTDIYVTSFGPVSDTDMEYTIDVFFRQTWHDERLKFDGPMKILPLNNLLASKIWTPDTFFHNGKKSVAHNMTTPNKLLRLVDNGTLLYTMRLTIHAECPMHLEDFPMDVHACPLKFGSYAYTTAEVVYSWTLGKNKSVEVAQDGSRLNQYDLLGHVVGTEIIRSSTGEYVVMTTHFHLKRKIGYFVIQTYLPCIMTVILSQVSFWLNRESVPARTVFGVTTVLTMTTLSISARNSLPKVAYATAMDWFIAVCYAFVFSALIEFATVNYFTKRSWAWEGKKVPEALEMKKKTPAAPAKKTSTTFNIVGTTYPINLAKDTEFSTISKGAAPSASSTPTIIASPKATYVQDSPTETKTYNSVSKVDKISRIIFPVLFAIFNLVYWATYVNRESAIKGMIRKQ
Chain of alpha 3 receptors (P63138 25-474 partner limits assumed): as the sequence (P63138 25-474 partner limits assumed) above
Chain of alpha 3 receptors (P18508 39-466): as the sequence (P18508 39-466) above

SMILES: NC(=O)N1c2ccccc2C=Cc2ccccc21 [Carbamazepine]
- effect on 5-HT release / extracellular 5-HT in the brain [1]: increase

SMILES: CN1C(=O)CN=C(c2ccccc2)c2cc(Cl)ccc21 [Diazepam, reference compound]
- concentration at which positive current modulations were first measurable ([2]; α2 containing receptors): below 0.1 μM
- maximal agonism, potentiation of GABA-induced current ([2]; α2β2γ2, at 1 μM diazepam): 1.8 fold
- Potentiation* (Diazepam) ([2]; α2β2γ2, with GABA EC20, graphically determined): 1.8 ± 0.6
- modulation of GABA-induced currents (in words) [3]: no significant modulation
- concentration at which the current was potentiated [4]: 10 nM
- maximal positive modulation of GABA-induced current ([4]; maximum at 30 μM (ELB139), at 1 μM (diazepam)): 2±0.05 fold
- Potentiation* (Diazepam) ([4]; with GABA EC20, graphically determined): 2 ± 0.05
- concentrations at which positive current modulation was observable ([5]; α3-containing receptors): below 10 nM
- Potentiation* (Diazepam) ([5]; α3β2γ2, with GABA EC20, graphically determined): 1.8 ± 0.11
- maximal positive modulation of GABA-induced current ([6]; α1-containing receptors, maximum at 30 μM (ELB139), at 1 μM (diazepam)): 2.2±0.9 fold
- Potentiation* (Diazepam) ([6]; α1β2γ2, with GABA EC20, graphically determined): 2.2 ± 0.9

SMILES: O=C(CCCN1CCC(O)(c2ccc(Cl)cc2)CC1)c1ccc(F)cc1 [Haloperidol, 4-(4-[4-chlorophenyl]-4-hydroxy-1-piperidinyl)-1-(4-fluorophenyl)-1-nutanone, reference compound]
- all symptoms induced by MK-801 [7]: significantly reduced all symptoms
- MK-801-induced ataxia, combination with flumazenil [8, 14]: significantly reversed
- effects on activity, distance, sniffing and other stereotypies when flumazenil is added [8, 14]: not affected
- MK-801-induced ataxia ([8]; haloperidol 0.5 mg/kg i.p. alone, MK-801 0.1 mg/kg i.p.): only marginally reduced
- MK-801-increased activity [8, 15]: significantly reversed
- MK-801-increased distance travelled [8, 15]: significantly reversed
- MK-801-induced other stereotypies [8, 15]: slightly reduced
- MK-801-induced sniffing (stereotypies) [8, 15]: significantly reversed

SMILES: Cn1c2ccc(F)cc2c2c(C(=O)N3CCCC3)cn(-c3ccccc3)c(=O)c21 [SL651498]
- partial agonistic activity [9]: 100%
- partial agonistic activity [10]: 40-50%
- activity [11]: 70%
- partial agonistic activity [12]: 40-50%

SMILES: CCCC(CCC)C(=O)O [Valproate]
- effect on 5-HT release / extracellular 5-HT in the brain [1]: enhances

SMILES: CNCCC(Oc1ccc(C(F)(F)F)cc1)c1ccccc1 (stereo not drawn) [fluoxetine, N-methyl-γ-[4-(trifluoromethyl)phenoxy] benzenepropanamine, reference compound]
- climbing behaviour [13]: not changed
- swimming time [13]: increased
- time spent immobile [13]: reduced

SMILES: NCC1(CC(=O)O)CCCCC1 [gabapentin]
- effect on 5-HT release / extracellular 5-HT in the brain [1]: decrease

SMILES: O=C1NC(=O)C(c2ccccc2)(c2ccccc2)N1 [phenytoin]
- effect on 5-HT release / extracellular 5-HT in the brain [1]: decrease
